Earlier results in patent US20160326157A1, “MONOBACTAMS AND METHODS OF THEIR SYNTHESIS AND USE” (PRESIDENT AND FELLOWS OF HARVARD COLLEGE, priority 2014, published 2016).

Legend:
[1] = in vivo
[2] = tested on: Gram-positive or anaerobic bacteria

In the case of C[C@H]1[C@H](NC(=O)/C(=N\OC(C)(C)C(=O)O)c2csc(N)n2)C(=O)N1S(=O)(=O)O [Aztreonam], the “concentration inhibiting most Enterobacteriaceae” value (Enterobacteriaceae) is given as “less than 0.5 g/mL”, the “absorption from the gastrointestinal tract” value [1] is given as “not absorbed” and the route of excretion [1] is given as “renally excreted”. For the same molecule, the “activity against Gram-positive or anaerobic bacteria” value [2] was “inactive”.
